Test results taken from patent US10604784B2, “Method and device for antibiotic susceptibility testing based on fluctuations of electrical resistance in a microchannel” (TRUSTEES OF BOSTON UNIVERSITY, priority 2016, dated 2020).

How the values were obtained:
Type in all cases: cell-based
S. epidermidis = experiment: Mean resistance based susceptibility test in the microchannel (bacterial growth); settings: broth/Vancomycin mixture, vancomycin 4 μg/ml, t=0 to 4 hrs
Description: After the bacteria are trapped, for the Mean Resistance based Susceptibility Test 410, at 412, the baseline mean (average or time-averaged measured resistance through the channel) resistance can be measured for a predefined period of time. The baseline mean can be determined as a function (e.g., the average or time-average) of the measured resistance through the channel for two or more points in time. After the baseline mean resistance is determined, at 414, the antibiotic is added to the solution, either via one of the reservoirs 110 or directly to the microchannel 120 and, at 416, the solution containing the bacteria and the antibiotic is allowed to incubate for a predefined period of time (e.g., 1-3 hours, although shorter or longer periods can be used). After the expiration of a predefined period of time, at 418, the mean resistance is determined (e.g., as a function of the measured resistance through the channel for two or more points in time) and, at 420, the mean resistance is compared to the baseline mean resistance. […]
In the experiment shown in FIGS. 14, 15 and 16, the susceptibility of S. epidermidis to Vancomycin was tested using the mean resistance based approach shown in the flowchart in FIG. 4. As discussed above, S. epidermidis is non-motile and readily settles in the microchannel. […]

[1] = tested on: susceptible E. coli strain; experiment: Electrical fluctuation based susceptibility test of immobilized bacteria in human urine/broth, susceptible strain; settings: about 50 bacteria, urine/broth/antibiotic mixture, antibiotic concentration above MIC, FIG. 13A/13C
Description: (§1) After the bacteria are trapped, for the Electrical Fluctuation based Susceptibility Test 430, at 432, the system measures the fluctuations of the electrical signals (e.g., voltage or current) to determine a baseline RMS signal level (e.g., the RMS level determined as function of the measured signal fluctuations). Next, at 434, the antibiotic is added to the solution, either via one of the reservoirs 110 or directly to the microchannel 120. Next, at 436, the (RMS) fluctuations of the electrical signal (e.g., voltage or current) are measured again and an RMS level can be determined as a function of the measured signal fluctuations, and, at 440, the RMS level of the fluctuations of the electrical signal can be compared to the baseline RMS signal level. If the RMS level of the fluctuations of the electrical signal is greater than the baseline signal RMS level, then the bacteria can be considered resistant to the antibiotic at 442. If the RMS level of the fluctuations of the electrical signal is not greater than the baseline RMS signal level, the bacteria can be considered susceptible to attack by the antibiotic at 444.
(§2) FIGS. 13A, 13B, and 13C show the results of antibiotic susceptibility studies in human urine. In this example, two strains of E. coli are used, with one being resistant to the administered antibiotic, nalidixic acid. […]

resistant E. coli strain = experiment: Electrical fluctuation based susceptibility test of immobilized bacteria in human urine/broth, resistant strain; settings: about 50 bacteria, urine/broth/antibiotic mixture, antibiotic concentration above MIC, FIG. 13B/13C
Description: as §1, §2

SMILES	population size of bacteria in the antibiotic solution (S. epidermidis)	mean resistance value (change over time) (S. epidermidis; FIG. 16)	voltage fluctuations (RMS amplitude) over time after antibiotic is administered [1]	voltage fluctuations (RMS amplitude) over time after antibiotic is administered (resistant E. coli strain)
CN[C@H](CC(C)C)C(=O)N[C@H]1C(=O)N[C@@H](CC(N)=O)C(=O)N[C@H]2C(=O)N[C@H]3C(=O)N[C@H](C(=O)N[C@H](C(=O)O)c4cc(O)cc(O)c4-c4cc3ccc4O)[C@H](O)c3ccc(c(Cl)c3)Oc3cc2cc(c3O[C@@H]2O[C@H](CO)[C@@H](O)[C@H](O)[C@H]2O[C@H]2C[C@](C)(N)[C@H](O)[C@H](C)O2)Oc2ccc(cc2Cl)[C@H]1O [Vancomycin]	the population size stays the same	does not change noticeably		
CCn1cc(C(=O)O)c(=O)c2ccc(C)nc21 [nalidixic acid]			decay rather quickly	do not show significant changes over time
